This data set is described as follows: Solubility of Axitinib (FIG. 1). The data set is classed as physicochemical. The note with it: FIG. 1A. The method, then:
FIG. 1: pictures showing solubility of Axitinib. A is a picture in which Axitinib is dissolved in water and trifluoroethanol; B is a picture in which gelatin and polycaprolactone are dissolved in trifluoroethanol with and without the addition of Axitinib to the electrospinning solution.
Stirring the solution to forms a milky solution. When it stays for a long period of time, granular precipitation may occur. […] 0.25 g of gelatin and 0.25 g of polycaprolactone were dissolved in 5 ml of trifluoroethanol containing 20 μl of acetic acid to form a transparent solution, and 50 mg of Axitinib was added to form a light yellow transparent solution (B).

On to `CNC(=O)c1ccccc1Sc1ccc2c(/C=C/c3ccccn3)n[nH]c2c1` [Axitinib], for which, for the setting “trifluoroethanol”, the “solubility in trifluoroethanol (TFE)” value is given as “quickly dissolved”. The solubility in water result (water) is recorded as “poorly soluble”.

For the origin of these results see patent US20220096717A1, “AXITINIB-LOADED NANOFIBER MEMBRANE, PREPARATION METHOD FOR THE SAME, AND ITS USE OF ANTI-ADHESION AFTER A SURGERY” (SHANGHAI CHILDREN'S MEDICAL CENTER, SHANGHAI JIAO TONG …, priority 2020, published 2022).
